{"source": "patent US20030157704A1", "about": "“Reagents and methods for identifying and modulating expression of genes regulated by CDK inhibitors” (priority 2001, published 2003)", "key": {"NK4 promoter": {"test_system": "NK4 promoter", "test": "Luciferase assay in LuNK4p21 cell line (NK4 promoter-luciferase, IPTG-inducible p21)", "assay_type": "cell-based, human", "protocol": "This assay was performed as follows. Cells were plated at a density of 40,000 cells/well in 12 well plates in 1 mL of media containing penicillin/streptomycin, glutamine and 10% fetal calf serum (FCS). After attachment, cells were treated with 50 μM IPTG or left untreated for different periods of time. Luciferase activity was then measured as described in Example 8 above. An additional aliquot was removed from the cell lysate to measure protein concentration using the Bio-Rad protein assay kit (Bradford assay). Luciferase activity for each sample was normalized to protein content and expressed as luciferase activity/μg protein.\nLuciferase assays were performed substantially as described in Example 9. Luciferase activity was measured after 16 hrs of incubation with or without 50 μM IPTG, followed by an additional 20 hr treatment in the presence or in the absence of 20 mM sodium salicylate, 1 mM sulindac, or 10 mM aspirin. […] NSAID concentrations were based on the pharmacologic concentrations of these agents in the serum of patients required for their anti-inflammatory properties (Yin et al., 1998, ibid.)."}, "p21-inducible genes": {"test_system": "p21-inducible genes", "test": "RT-PCR of endogenous p21-inducible genes in LuNK4p21 cells", "assay_type": "cell-based, human", "protocol": "To determine whether NFκB-inhibiting NSAID inhibited not only the induction of transcription from the NK4 promoter but also RNA expression of the endogenous p21-inducible genes, LuNK4p21 cells were plated at 125,000 cells per well in 6-well plates and were either untreated or treated with 50 μM IPTG for 48 hrs (the period of time required for maximal stimulation of p21-inducible genes; Chang et al., 2000, Proc. Natl. Acad. Sci. USA 97: 4291-4296), in the presence or in the absence of sulindac, at 250 μM, 500 μM or 1 mM concentrations. After this incubation, RNA was extracted from the cells using Qiagen RNeasy Mini Kit, and relative RNA levels of several p21-inducible genes were determined by reverse transcription-PCR (RT-PCR), essentially as described by Noonan et al. (1990, Proc. Natl. Acad. Sci. USA 87: 7160-7164), except that β-actin rather than β2-microglobulin was used for cDNA normalization. The PCR cycles were as follows: for the 1st cycle, 3 min for denaturation, 2 min for annealing and 2 min for extension, and the rest of cycles, 30 sec for denaturation; 30 sec for annealing; and 1 min for extension."}, "CDK4": {"biological_target": "CDK4 (UniProt P11802)", "sequence (P11802 2-303 limits assumed)": "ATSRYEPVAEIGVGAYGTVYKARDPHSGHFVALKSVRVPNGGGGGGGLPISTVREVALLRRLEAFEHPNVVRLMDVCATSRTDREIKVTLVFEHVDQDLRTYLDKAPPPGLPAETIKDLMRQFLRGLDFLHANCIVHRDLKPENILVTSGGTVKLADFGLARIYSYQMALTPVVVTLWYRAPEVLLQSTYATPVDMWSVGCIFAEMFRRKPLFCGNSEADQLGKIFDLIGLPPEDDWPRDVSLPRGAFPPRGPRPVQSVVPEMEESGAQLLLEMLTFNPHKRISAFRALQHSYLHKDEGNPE", "test": "cell-based or functional assay"}, "CDK6": {"biological_target": "CDK6 (UniProt Q00534)", "sequence (Q00534 whole entry)": "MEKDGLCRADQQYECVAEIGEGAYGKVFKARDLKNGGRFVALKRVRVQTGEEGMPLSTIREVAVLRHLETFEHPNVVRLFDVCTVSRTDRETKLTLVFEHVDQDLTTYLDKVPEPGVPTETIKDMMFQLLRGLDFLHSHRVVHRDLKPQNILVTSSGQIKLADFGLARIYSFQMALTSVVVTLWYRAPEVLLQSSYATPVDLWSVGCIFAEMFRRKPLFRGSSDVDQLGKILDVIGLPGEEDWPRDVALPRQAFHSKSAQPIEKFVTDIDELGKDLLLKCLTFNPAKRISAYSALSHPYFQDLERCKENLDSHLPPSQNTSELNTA", "test": "cell-based or functional assay"}, "[1]": {"conditions": "25 μM NSAID for 20 hr after 16 hrs with 50 μM IPTG"}}}
{"compound": "CC(=O)Oc1ccccc1C(=O)O", "note": "[aspirin]", "values": [{"measurement": "induction of luciferase expression by IPTG", "setting": "NK4 promoter; 10 mM aspirin for 20 hr after 16 hrs with 50 μM IPTG", "value": "completely or almost completely abolished"}]}
{"compound": "CC(C)Cc1ccc(C(C)C(=O)O)cc1", "note": "(stereo not shown) [ibuprofen]", "values": [{"measurement": "induction of luciferase expression by IPTG", "setting": "NK4 promoter; [1]", "value": "no significant difference"}]}
{"compound": "COc1ccc2c(c1)c(CC(=O)O)c(C)n2C(=O)c1ccc(Cl)cc1", "note": "[indomethacin]", "values": [{"measurement": "induction of luciferase expression by IPTG", "setting": "NK4 promoter; [1]", "value": "no significant difference"}]}
{"compound": "O=C([O-])c1ccccc1O.[Na+]", "note": "[sodium salicylate]", "values": [{"measurement": "induction of luciferase expression by IPTG", "setting": "NK4 promoter; 20 mM sodium salicylate for 20 hr after 16 hrs with 50 μM IPTG", "value": "completely or almost completely abolished"}]}
{"compound": "CC1=C(CC(=O)O)c2cc(F)ccc2/C1=C\\c1ccc([S+](C)[O-])cc1", "note": "(stereo not shown) [sulindac]", "values": [{"measurement": "induction of luciferase expression by IPTG", "setting": "NK4 promoter; 1 mM sulindac for 20 hr after 16 hrs with 50 μM IPTG", "value": "completely or almost completely abolished"}, {"measurement": "effects of IPTG on APP gene RNA", "setting": "p21-inducible genes; 250 and 500 μM sulindac", "value": "diminished"}, {"measurement": "NK4 gene expression (RNA)", "setting": "p21-inducible genes; absence of IPTG, sulindac 250 μM, 500 μM or 1 mM, 48 hrs", "value": "very little effect"}, {"measurement": "gene expression of all the other tested genes", "setting": "p21-inducible genes; absence of IPTG, sulindac 250 μM-1 mM", "value": "dose-dependent increase"}, {"measurement": "t-TGase RNA", "setting": "p21-inducible genes; compared with NK4, with and without IPTG, sulindac 250 μM-1 mM", "value": "Very similar results"}, {"measurement": "p21-induced transcription of most of the tested genes", "setting": "p21-inducible genes; moderate dose of sulindac (250 μM)", "value": "inhibits the ability of p21 to induce transcription"}, {"measurement": "effects of IPTG on CTGF gene RNA", "setting": "p21-inducible genes; only by 250 μM sulindac", "value": "diminished"}, {"measurement": "effects of IPTG on Mac2-binding protein (Mac2-BP) gene RNA", "setting": "p21-inducible genes; only by 250 μM sulindac", "value": "diminished"}, {"measurement": "effects of IPTG on p66Shc gene RNA", "setting": "p21-inducible genes; only by 250 μM sulindac", "value": "diminished"}, {"measurement": "NK4 RNA levels", "setting": "p21-inducible genes; presence of 50 μM IPTG, all concentrations of sulindac (250 μM, 500 μM, 1 mM), 48 hrs", "value": "dose-dependent decrease"}, {"measurement": "gene expression of all the other tested genes", "setting": "p21-inducible genes; presence of IPTG, highest dose of sulindac (1 mM)", "value": "did not decrease gene expression"}, {"measurement": "IPTG-induced RNA levels of prosaposin", "setting": "p21-inducible genes; sulindac 250 μM, 500 μM, 1 mM", "value": "None of the tested sulindac concentrations produced a significant decrease"}, {"measurement": "IPTG-induced RNA levels of superoxide dismutase 2 (SOD2)", "setting": "p21-inducible genes; sulindac 250 μM, 500 μM, 1 mM", "value": "None of the tested sulindac concentrations produced a significant decrease"}]}
{"compound": "p16^Ink4A (from UniProt P42771 1-156)", "values": [{"measurement": "cells arrested in G1 after 24 hrs of IPTG treatment (FACS analysis of DNA content)", "setting": "CDK4", "value": 93, "unit": "%"}, {"measurement": "cells arrested in G1 after 24 hrs of IPTG treatment (FACS analysis of DNA content)", "setting": "CDK6", "value": 93, "unit": "%"}]}
